Legend:
mice = test: Social affiliation test; assay type: in vivo, mouse; settings: Mdga2+/- mice
Experimental: Six- to eight-week-old male mice were subjected to various behavioral tests. Mice were allowed to acclimatize in the testing room for 1 h prior to each test. Data were recorded and analyzed using Smart 3.0 video tracking system (Panlab, Harvard Apparatus).
The test procedure was similar to that described previously. Briefly, a cylinder (8.5 cm in diameter) with a gender-matched reference mouse confined was placed at a specific location in an open field (40 cm in diameter). Tested mice were allowed to move freely in the open field for 7 min and their sniffing time with the reference mice was analyzed.

[1] = tested on: TrkB signaling (pTrkB, pAkt, pmTOR); test: Immunoblotting of TrkB signaling in hippocampus / brain of treated mice; assay type: in vivo, mouse; settings: AAV-Mdga2 shRNA mice, n = 4, Fig 6E and 6H
[2] = tested on: cell surface GluA1, GluN1; test: Cell surface biotinylation of GluA1 and GluN1 in hippocampal neurons; assay type: cell-based, mouse; settings: 10 μM ANA-12, 24 h, 12 DIV
Experimental: ANA-12 was dissolved in saline containing 10% DMSO to a final concentration of 0.5 mg/kg and intraperitoneally administered into male mice. For chronic treatment, ANA-12 was administered to 3-week-old male mice at twice/week for 3 weeks until mice reached 6 weeks of age. For acute treatment, ANA-12 was administered to 4-week-old male mice for three consecutive days. For and cultured neurons, ANA-12 was suspended to a 10 mM concentration in DMSO and diluted 1:1,000 in solution. Final concentration for treatment is 10 µ M with 0.1% DMSO.
Supplementary file pbio.3003047.s005.tif: S5 Fig Pharmacological inhibition of […] improves social behaviors in Mdga2 ^+/− mice. (A, B) The miniature inhibitory postsynaptic currents (mIPSCs) of hippocampal neurons in treated Het mice and their wild-type (WT) littermates were recorded and their kinetics (rise time and decay) were quantified for comparison. n = 14 cells from 3 mice per group. (C, D) The miniature excitatory postsynaptic currents (mEPSCs) of hippocampal neurons in treated mice were recorded and their kinetics (rise time and decay) were quantified for comparison. n = 14 cells from 3 mice per group. (E) Representative traces of evoked NMDAR-mediated EPSCs and quantitative analysis of evoked NMDAR-mediated EPSC amplitude with increasing stimulus intensity. n = 20–23 cells from 3 mice per group. […]

TrkB signaling = test: Time course of TrkB signaling inhibition in cerebrum after i.p. ANA-12 (immunoblotting); assay type: in vivo, mouse; settings: 0.5 mg/kg i.p., WT and Mdga2-/- mice, S4A Fig
Experimental: Equal protein amounts of total lysates from cells or mouse tissues were subjected to SDS-PAGE and immunoblotted with antibodies indicated. For Co-IP, 1 mg of protein lysates were incubated with antibodies indicated and Protein G Agarose (ThermoFisher, Cat# 20399) beads at 4 °C overnight, and immunoprecipitated proteins were then subjected to SDS-PAGE and immunoblotting. Uncropped immunoblotting images are shown in S1 Raw Images.
ANA-12 was dissolved in saline containing 10% DMSO to a final concentration of 0.5 mg/kg and intraperitoneally administered into male mice. For chronic treatment, ANA-12 was administered to 3-week-old male mice at twice/week for 3 weeks until mice reached 6 weeks of age. […]
Supplementary file pbio.3003047.s004.tif: S4 Fig Acute ANA-12 treatment temporarily rescues social deficits in Mdga2 ^+/− mice. […] (C–G) Mice were analyzed for their total travel distance in the open field test (C), their discrimination index in the novel location recognition test (D), their time spent self-grooming and bouts of self-grooming (E), their sniffing time in the social affiliation test (F), and their sociability and social novelty preferences in the three-chamber test (G). n = 15 mice per group. […] P-values were determined by two-way ANOVA with Tukey’s multiple comparisons test. ns: not significant, *p < 0.05, **p < 0.01, ***p < 0.001, ns: not significant. […]

## O=C(Nc1ccccc1C(=O)NC1CCCCNC1=O)c1cc2ccccc2s1 (centres unmarked) [ANA-12, reference compound]
mice; acute 0.5 mg/kg i.p. 3 days, acute Test 1 (1 day): Interaction F(1,56) = 7.214, p = 0.0095
  social preference (social affiliation): significantly higher social preference compared to controls in acute Test 1
mice; chronic 0.5 mg/kg i.p., Test 1 (1 week) Interaction F(1,56) = 10.07, p = 0.0024, Test 2 (5 weeks) F(1,56) = 4.906, p = 0.0309
  impaired social affiliation: significantly improved impaired social affiliation in Mdga2^ +/− mice in both chronic Test 1 and chronic Test 2
[1]
  elevated TrkB signaling: reversed the elevated TrkB signaling
[2]
  cell surface distribution of GluA1 in MDGA2-deficient vs WT neurons: became comparable between these neurons upon ANA-12 treatment
TrkB signaling
  time of main TrkB signaling inhibition after treatment: 16 to 24 h

— publication PMC11960969, “Mdga2 deficiency leads to an aberrant activation of BDNF/TrkB signaling that underlies autism-relevant synaptic and behavioral changes in mice” (PLOS Biology, 2025)
